Patent publication US5854204A, “Aβ peptides that modulate β-amyloid aggregation” (priority 1996, dated 1998)
Peptide text beside a SMILES is read from it. * marks the point of attachment. Cholyl = C[C@H](CCC(=O)*)[C@H]1CC[C@H]2[C@@H]3[C@H](O)C[C@@H]4C[C@H](O)CC[C@]4(C)[C@H]3C[C@H](O)[C@]12C

Legend:
[1] = biological target: T1, Aβ1-40 (Homo sapiens, UniProt P05067); settings: for ΔLag (ratio of lag time with test compound to lag time of control): Table V, 100 mole % inhibitor relative to Aβ1-40;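 on all read-outs here: Aβ nucleation assay tracking fiber polymerization from monomer by turbidity (light scattering), shaken continuously in 96-well plates, read every 15 min over 5 h, compared with compound-free control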
T1 sequence (P05067 672-711): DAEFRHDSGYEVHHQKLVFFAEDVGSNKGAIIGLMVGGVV
Description: (§1) The nucleation assay is employed to determine the ability of test compounds to alter (e.g. inhibit) the early events in formation of β-AP fibers from monomeric β-AP. […] The time delay before polymerization of β-AP monomer can be quantified as well as the extent of formation of insoluble fiber by light scattering (turbidity). Polymerization reaches equilibrium when the maximum turbidity reaches a plateau. […] The threshold of sensitivity for the measurement of turbidity is in the range of 15-20 μM β-AP. […] This assay can be performed using stirring or shaking to accelerate polymerization, thereby increasing the speed of the assay. Moreover the assay can be adapted to a 96-well plate format to screen multiple compounds.
(§2) HFIP-solubilized peptide is sonicated in a waterbath sonicator for 5 min at highest setting, then evaporated to dryness under a stream of argon. […] Test compounds are dissolved in DMSO at a 100× concentration. […] Ten microliters of the mixture is then added to the bottom of a well of a Corning Costar ultra low binding 96-well plate (Corning Costar, Cambridge Mass.; cat. No. 2500). […] The plate is then returned to the shaker and shaken continuously for 5 hours. Turbidity readings are taken at 15 minute intervals.
(§3) Accordingly a fold increase in lag time of 1.0 indicates no change in lag time, whereas numbers >1.0 indicate an increase in lag time. The "% inhibition of plateau", which is a measure of the ability of the compound to decrease the total amount of aggregation, refers to the reduction of the final turbidity in the presence of the test compound expressed as a percent of the control without the test compound.

[2] = biological target: T1, Aβ1-40; test: Seeded extension assay (thioflavin T fluorescence); format: biochemical; parameters: Natural β-AP (β-AP1-40) was obtained commercially from Bachem (Torrance, Calif.); purchased Bachem (Torrance, Calif.); settings: Table V; 25 mole % inhibitor
Method: The seeded extension assay can be employed to measure the rate of Aβ fiber formed in a solution of Aβ monomer following addition of polymeric Aβ fiber "seed". The ability of test compounds to prevent further deposition of monomeric Aβ to previously deposited amyloid is determined using a direct indicator of β-sheet formation using fluorescence. In contrast with the nucleation assay, the addition of seed provides immediate nucleation and continued growth of preformed fibrils without the need for continuous mixing, and thus results in the absence of a lag time before polymerization starts. Since this assay uses static polymerization conditions, the activity of positive compounds in the nucleation assay can be confirmed in this second assay under different conditions and with an additional probe of amyloid structure.
Samples of the solution are then diluted in thioflavin T (Th-T). The polymer-specific association of Th-T with Aβ produces a fluorescent complex that allows the measurement of the extent of fibril formation (Levine, H. (1993) Protein Science 2:404-410). In particular, association of Th-T with aggregated β-AP, but not monomeric or loosely associated β-AP, gives rise to a new excitation (ex) maximum at 450 nm and an enhanced emission (em) at 482 nm, compared to the 385 nm (ex) and 445 nm (em) for the free dye. Small aliquots of the polymerization mixture contain sufficient fibril to be mixed with Th-T to allow the monitoring of the reaction mixture by repeated sampling. A linear growth curve is observed in the presence of excess monomer. The formation of thioflavin T responsive β-sheet fibrils parallels the increase in turbidity observed using the nucleation assay.
To prepare the stock seed, 1 ml of the Aβ monomer preparation, is incubated for approximately 8 days at 37° C. and sheared sequentially through an 18, 23, 26 and 30 gauge needle 25, 25, 50, and 100 times respectively. 2 μl samples of the sheared material is taken for fluorescence measurements after every 50 passes through the 30 gauge needle until the fluorescence units (FU) plateau (approx. 100-150×). Test compounds are prepared by dissolving an appropriate amount of test compound in 1× PBS to a final concentration of 1 mM (10× stock). If insoluble, the compound is dissolved in 1/10 volume of DMSO and diluted in 1× PBS to 1 mM. A further 1/10 dilution is also prepared to test each candidate at both 100 μM and 10 μM.
To perform the seeded extension assay, each sample is set up with 50 μl of 200 μM monomer, 125 FU sheared seed (a variable quantity dependent on the batch of seed, routinely 3-6 μl) and 10 μl of 10× modulator solution. The sample volume is then adjusted to a final volume of 100 μl with 1× PBS. Two concentrations of each modulator typically are tested: 100 μM and 10 μM, equivalent to a 1:1 and a 1:10 molar ratio of monomer to modulator. The controls include an unseeded reaction to confirm that the fresh monomer contains no seed, and a seeded reaction in the absence of any modulators, as a reference to compare against candidate modulators. The assay is incubated at 37° C. for 6 h, taking 2 μl samples hourly for fluorescence measurements. To measure fluorescence, a 2 μl sample of Aβ is added to 400 μl of Thioflavin-T solution (50 mM Potassium Phosphate […] pH 7.5). The samples are vortexed and the fluorescence is read in a 0.5 ml micro quartz cuvette at EX 450 nm and EM 482 nm (Hitachi 4500 Fluorimeter).
The modulators were evaluated in the nucleation and seeded extension assays described in Example 6 and the results are summarized below in Table V. The change in lag time (ΔLag) is presented as the ratio of the lag time observed in the presence of the test compound to the lag time of the control. […] Inhibition (% Inucl'n) is listed as the percent reduction in the maximum observed turbidity in the control at the end of the assay time period. […]

[3] = biological target: T1, Aβ1-40; test: biochemical; settings: read-out: % Inucl'n (percent reduction in maximum turbidity)
Description: as §1, §2, §3

Row | Compound | % Inhibition of Plateau [1] | % Iext'n (percent reduction of thioflavin-T fluorescence) [2] [%] | inhibition at 100 % [3] [%] | ΔLag (ratio of lag time with test compound to lag time of control) [1] | Fold Increase in Lag Time ([1]; Table IV, 100 mole %)
1 | CC(C)C[C@H](NC(=O)CC[C@@H](C)[C@H]1CC[C@H]2[C@@H]3[C@H](O)C[C@@H]4C[C@H](O)CC[C@]4(C)[C@H]3C[C@H](O)[C@]12C)C(=O)N[C@H](C(=O)N[C@@H](Cc1ccccc1)C(=O)N[C@@H](Cc1ccccc1)C(=O)N[C@@H](C)C(=O)O)C(C)C [PPI-368, cholyl-Aβ17-21] | 100% | 91 | 100 |  | 
2 | CC(C)C[C@H](N)C(=O)N[C@H](C(=O)N[C@@H](Cc1ccccc1)C(=O)N[C@@H](Cc1ccccc1)C(=O)N[C@@H](C)C(=O)O)C(C)C [PPI-386] |  | 11 | 15 | 1.0 | 
3 | C[C@H](NC(=O)[C@H](C)NC(=O)[C@H](C)NC(=O)[C@H](C)NC(=O)[C@H](C)NC(=O)CC[C@@H](C)[C@H]1CC[C@H]2[C@@H]3[C@H](O)C[C@@H]4C[C@H](O)CC[C@]4(C)[C@H]3C[C@H](O)[C@]12C)C(=O)O [PPI-365, Cholyl-penta-alanine, reference compound] | ~ 0% | 0 | -7 |  | 
4 | CC(C)C[C@H](NC(=O)[C@H](CCCCN)NC(=O)CC[C@@H](C)[C@H]1CC[C@H]2[C@@H]3[C@H](O)C[C@@H]4C[C@H](O)CC[C@]4(C)[C@H]3C[C@H](O)[C@]12C)C(=O)N[C@H](C(=O)N[C@@H](Cc1ccccc1)C(=O)N[C@@H](Cc1ccccc1)C(N)=O)C(C)C [PPI-319, cholyl-Aβ16-20-amide] | ~ 0% | 52 | 70 |  | 
5 | CC(C)C[C@H](NC(=O)CC[C@@H](C)[C@H]1CC[C@H]2[C@@H]3[C@H](O)C[C@@H]4C[C@H](O)CC[C@]4(C)[C@H]3C[C@H](O)[C@]12C)C(=O)N[C@H](C(=O)N[C@@H](Cc1ccccc1)C(=O)N[C@@H](Cc1ccccc1)C(=O)N[C@@H](C)C(=O)N[C@@H](CCC(=O)O)C(=O)O)C(C)C [PPI-379] (Cholyl-LVFFAE-OH) |  | 16 | 55 |  | 
6 | CC(C)C[C@H](NC(=O)[C@@H](N)CCCCN)C(=O)N[C@H](C(=O)N[C@@H](Cc1ccccc1)C(=O)N[C@@H](Cc1ccccc1)C(=O)O)C(C)C [PPI-377, Aβ16-20] |  | 8 | 0 | 1.1 | ~ 1 fold
7 | CC(C)C[C@H](NC(=O)[C@H](CCCCN)NC(=O)[C@H](CCC(N)=O)NC(=O)CC[C@@H](C)[C@H]1CC[C@H]2[C@@H]3[C@H](O)C[C@@H]4C[C@H](O)CC[C@]4(C)[C@H]3C[C@H](O)[C@]12C)C(=O)N[C@H](C(=O)N[C@@H](Cc1ccccc1)C(=O)N[C@@H](Cc1ccccc1)C(=O)O)C(C)C [PPI-349, cholyl-Aβ15-20] |  | 56 | 100 |  | 
8 | CC(C)[C@H](NC(=O)CC[C@@H](C)[C@H]1CC[C@H]2[C@@H]3[C@H](O)C[C@@H]4C[C@H](O)CC[C@]4(C)[C@H]3C[C@H](O)[C@]12C)C(=O)N[C@@H](Cc1ccccc1)C(=O)N[C@@H](Cc1ccccc1)C(=O)O [PPI-394] |  | 0 | 55 |  | 
9 | CC(C)C[C@H](NC(=O)[C@@H](NC(=O)[C@H](Cc1ccccc1)NC(=O)[C@H](Cc1ccccc1)NC(=O)CC[C@@H](C)[C@H]1CC[C@H]2[C@@H]3[C@H](O)C[C@@H]4C[C@H](O)CC[C@]4(C)[C@H]3C[C@H](O)[C@]12C)C(C)C)C(=O)O [PPI-430] (Cholyl-FFVL-OH) |  | 75 | 33 |  | 
10 | CC(C)C[C@H](NC(=O)CC[C@@H](C)[C@H]1CC[C@H]2[C@@H]3[C@H](O)C[C@@H]4C[C@H](O)CC[C@]4(C)[C@H]3C[C@H](O)[C@]12C)C(=O)N[C@@H](C)C(=O)N[C@@H](Cc1ccccc1)C(=O)N[C@@H](Cc1ccccc1)C(=O)N[C@@H](C)C(=O)O [PPI-389] (Cholyl-LAFFA-OH) |  | 66 | 47 |  | 
11 | CC(C)[C@H](NC(=O)[C@@H](NC(=O)[C@H](CCCCN)NC(=O)CC[C@@H](C)[C@H]1CC[C@H]2[C@@H]3[C@H](O)C[C@@H]4C[C@H](O)CC[C@]4(C)[C@H]3C[C@H](O)[C@]12C)[C@@H](C)O)C(=O)N[C@@H](Cc1ccccc1)C(=O)N[C@@H](Cc1ccccc1)C(=O)O [PPI-375] (Cholyl-KTVFF-OH) |  | 21 | 18 |  | 
12 | CC(C)[C@H](NC(=O)[C@H](C)NC(=O)CC[C@@H](C)[C@H]1CC[C@H]2[C@@H]3[C@H](O)C[C@@H]4C[C@H](O)CC[C@]4(C)[C@H]3C[C@H](O)[C@]12C)C(=O)N[C@@H](Cc1ccccc1)C(=O)N[C@@H](Cc1ccccc1)C(=O)N[C@@H](C)C(=O)O [PPI-388] (Cholyl-AVFFA-OH) |  | 44 | 68 |  | 
13 | CC(C)[C@H](NC(=O)[C@H](Cc1ccccc1)NC(=O)[C@H](Cc1ccccc1)NC(=O)CC[C@@H](C)[C@H]1CC[C@H]2[C@@H]3[C@H](O)C[C@@H]4C[C@H](O)CC[C@]4(C)[C@H]3C[C@H](O)[C@]12C)C(=O)O [PPI-429] |  | 7 | -33 |  | 
